The results in this text go back to patent US20230028658A1, “EXPANDED DOSAGE REGIMENS FOR INTEGRIN INHIBITORS” (Pliant Therapeutics, Inc., priority 2021, published 2023).

In this experiment the target is recombinant human integrin αvβ6 (Homo sapiens, UniProt P06756+P18564). In words: Solid phase integrin αvβ6 binding assay. Particulars: read-out: αvβ6 Inhibition IC50 (nM) - range. As to the method:
Microplates were coated with recombinant human integrin αvβ6 (2 μg/mL) in PBS (100 μL/well 25° C., overnight). The coating solution was removed, washed with wash buffer (0.05% Tween 20; 0.5 mM MnCl2; in 1×TBS). The plate was blocked with 200 μL/well of Block Buffer (1% BSA; 5% sucrose; 0.5 mM MnCl2; in 1×TBS) at 37° C. for 2 h. Dilutions of testing compounds and recombinant TGFβ1 LAP (0.67 μg/mL) in binding buffer (0.05% BSA; 2.5% sucrose; 0.5 mM MnCl2; in 1×TBS) were added. The plate was incubated for 2 hours at 25° C., washed, and incubated for 1 hour with Biotin-Anti-hLAP. Bound antibody was detected by peroxidase-conjugated streptavidin. The IC50 values for testing compounds were calculated by a four-parameter logistic regression.
The compounds tested were compound samples prepared according to procedures described in the Synthetic Examples section, with the stereochemical purity as indicated in the Examples.

SMILES strings stand for the structures.

Chain of recombinant human integrin αvβ6 (P06756 31-992 limits assumed): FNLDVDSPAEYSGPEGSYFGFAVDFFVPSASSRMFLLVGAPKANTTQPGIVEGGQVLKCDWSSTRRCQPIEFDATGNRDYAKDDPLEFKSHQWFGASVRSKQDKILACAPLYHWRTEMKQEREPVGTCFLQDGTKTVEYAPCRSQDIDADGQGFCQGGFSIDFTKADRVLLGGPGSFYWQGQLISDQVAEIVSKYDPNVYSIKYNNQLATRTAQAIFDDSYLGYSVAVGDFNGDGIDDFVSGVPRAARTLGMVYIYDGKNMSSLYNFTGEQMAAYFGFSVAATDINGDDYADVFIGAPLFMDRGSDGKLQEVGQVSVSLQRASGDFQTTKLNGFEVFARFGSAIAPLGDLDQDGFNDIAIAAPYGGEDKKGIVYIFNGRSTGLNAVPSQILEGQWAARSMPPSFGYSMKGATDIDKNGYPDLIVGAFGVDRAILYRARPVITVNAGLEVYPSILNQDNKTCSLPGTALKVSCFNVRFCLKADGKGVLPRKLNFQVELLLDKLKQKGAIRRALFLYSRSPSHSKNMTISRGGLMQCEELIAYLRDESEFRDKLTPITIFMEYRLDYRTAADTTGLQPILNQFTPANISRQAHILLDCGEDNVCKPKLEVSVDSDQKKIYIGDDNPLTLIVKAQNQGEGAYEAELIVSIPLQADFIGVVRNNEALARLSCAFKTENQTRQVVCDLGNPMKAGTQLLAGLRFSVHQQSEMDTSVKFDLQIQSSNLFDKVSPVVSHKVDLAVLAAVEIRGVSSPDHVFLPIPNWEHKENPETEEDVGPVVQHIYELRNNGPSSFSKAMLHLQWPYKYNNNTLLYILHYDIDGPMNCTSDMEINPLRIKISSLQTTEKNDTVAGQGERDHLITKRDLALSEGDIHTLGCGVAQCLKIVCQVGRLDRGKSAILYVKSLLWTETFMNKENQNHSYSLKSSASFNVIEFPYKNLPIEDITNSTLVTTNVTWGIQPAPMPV
Chain of recombinant human integrin αvβ6 (P18564 22-707 limits assumed): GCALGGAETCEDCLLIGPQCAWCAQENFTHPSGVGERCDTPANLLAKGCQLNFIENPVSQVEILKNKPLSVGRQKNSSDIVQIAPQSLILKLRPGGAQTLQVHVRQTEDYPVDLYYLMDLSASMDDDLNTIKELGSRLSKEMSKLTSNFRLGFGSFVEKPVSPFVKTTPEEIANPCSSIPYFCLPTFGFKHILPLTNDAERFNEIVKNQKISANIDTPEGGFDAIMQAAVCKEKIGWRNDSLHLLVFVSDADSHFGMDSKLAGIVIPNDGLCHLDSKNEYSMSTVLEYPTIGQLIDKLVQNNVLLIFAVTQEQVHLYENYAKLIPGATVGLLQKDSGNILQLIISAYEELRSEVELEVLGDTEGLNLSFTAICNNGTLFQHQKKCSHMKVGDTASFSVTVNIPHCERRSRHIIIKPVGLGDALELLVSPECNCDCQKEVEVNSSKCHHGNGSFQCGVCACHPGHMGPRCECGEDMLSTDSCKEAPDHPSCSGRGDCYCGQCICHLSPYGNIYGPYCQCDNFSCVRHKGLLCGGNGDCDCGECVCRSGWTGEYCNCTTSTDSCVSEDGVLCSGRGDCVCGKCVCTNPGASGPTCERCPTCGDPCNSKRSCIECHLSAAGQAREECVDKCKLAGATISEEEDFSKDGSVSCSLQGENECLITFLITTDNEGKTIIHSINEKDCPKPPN

Regarding `CO[C@H](C)CN(CCCCc1ccc2c(n1)NCCC2)CC[C@H](Nc1ncc(C2CC2)cn1)C(=O)O` [Compound 124, (S)-2-((5-cyclopropylpyrimidin-2-yl)amino)-4-(((R)-2-methoxypropyl) (4-(5,6,7,8-tetrahydro-1,8-naphthyridin-2-yl)butyl)amino) butanoic acid], the IC50 is under 50 nM.
To `COCCN(CCCCc1ccc2c(n1)NCCC2)CC[C@H](Nc1ncnc2cccnc12)C(=O)O` [Compound 16, (S)-4-((2-methoxyethyl) (4-(5,6,7,8-tetrahydro-1,8-naphthyridin-2-yl)butyl)amino)-2-(pyrido[3,2-d]pyrimidin-4-ylamino) butanoic acid] belongs under 50 nM; to `COC[C@@H](F)CN(CCCCc1ccc2c(n1)NCCC2)CC[C@H](Nc1ncc(C#N)cn1)C(=O)O` [Compound 84, (S)-2-((5-cyanopyrimidin-2-yl)amino)-4-(((S)-2-fluoro-3-methoxypropyl) (4-(5,6,7,8-tetrahydro-1,8-naphthyridin-2-yl)butyl)amino) butanoic acid], 250 to 1000 nM.
Regarding `O=C(O)[C@H](CCN(CCCCc1ccc2c(n1)NCCC2)CC(F)F)Nc1ncncc1-c1ccccc1` [Compound 119, (S)-4-((2,2-difluoroethyl) (4-(5,6,7,8-tetrahydro-1,8-naphthyridin-2-yl)butyl)amino)-2-((5-phenylpyrimidin-4-yl)amino) butanoic acid], the IC50 was over 1000 nM.
Under `CO[C@H](C)CN(CCCCc1ccc2c(n1)NCCC2)CC[C@H](Nc1ncnc2ccccc12)C(=O)O` [Compound 62, (S)-4-(((R)-2-methoxypropyl) (4-(5,6,7,8-tetrahydro-1,8-naphthyridin-2-yl)butyl)amino)-2-(quinazolin-4-ylamino) butanoic acid] stands under 50 nM.
To `Cn1ncc2c(N[C@@H](CCN(CCCCc3ccc4c(n3)NCCC4)CC(F)F)C(=O)O)ncnc21` [Compound 88, (S)-4-((2,2-difluoroethyl) (4-(5,6,7,8-tetrahydro-1,8-naphthyridin-2-yl)butyl)amino)-2-((1-methyl-1H-pyrazolo[3,4-d]pyrimidin-4-yl)amino) butanoic acid] belongs over 1000 nM; to `COC[C@@H](F)CN(CCCCc1ccc2c(n1)NCCC2)CC[C@H](Nc1ccncn1)C(=O)O` [Compound 127, (S)-4-(((S)-2-fluoro-3-methoxypropyl) (4-(5,6,7,8-tetrahydro-1,8-naphthyridin-2-yl)butyl)amino)-2-(pyrimidin-4-ylamino) butanoic acid], 250 to 1000 nM; to `CO[C@H](C)CN(CCCCc1ccc2c(n1)NCCC2)CC[C@H](Nc1ccncn1)C(=O)O` [Compound 106, (S)-4-(((R)-2-methoxypropyl) (4-(5,6,7,8-tetrahydro-1,8-naphthyridin-2-yl)butyl)amino)-2-(pyrimidin-4-ylamino) butanoic acid], under 50 nM.
Regarding `Cn1ncc2c(N[C@@H](CCN(CCCF)CCCCc3ccc4c(n3)NCCC4)C(=O)O)ncnc21` [Compound 136, (S)-4-((3-fluoropropyl) (4-(5,6,7,8-tetrahydro-1,8-naphthyridin-2-yl)butyl)amino)-2-((1-methyl-1H-pyrazolo[3,4-d]pyrimidin-4-yl)amino) butanoic acid], the IC50 is under 50 nM.
Under `COCCN(CCCCc1ccc2c(n1)NCCC2)CC[C@H](Nc1ncnc2cc(F)ccc12)C(=O)O` [Compound 7, (S)-2-((7-fluoroquinazolin-4-yl)amino)-4-((2-methoxyethyl) (4-(5,6,7,8-tetrahydro-1,8-naphthyridin-2-yl)butyl)amino) butanoic acid] stands under 50 nM; under `O=C(O)[C@H](CCN(CCCCc1ccc2c(n1)NCCC2)CCC(F)F)Nc1ncc(Br)cn1` [Compound 131, (S)-2-((5-bromopyrimidin-2-yl)amino)-4-((3,3-difluoropropyl) (4-(5,6,7,8-tetrahydro-1,8-naphthyridin-2-yl)butyl)amino) butanoic acid], 50 to 250 nM.
On to `O=C(O)[C@H](CCN(CCCCc1ccc2c(n1)NCCC2)CCC(F)F)Nc1ncnc2ccccc12` [Compound 29, (S)-4-((3,3-difluoropropyl) (4-(5,6,7,8-tetrahydro-1,8-naphthyridin-2-yl)butyl)amino)-2-(quinazolin-4-ylamino) butanoic acid], for which the IC50 was under 50 nM.
To `COCCN(CCCCc1ccc2c(n1)NCCC2)CC[C@H](Nc1nccc2ccccc12)C(=O)O` [Compound 34, (S)-2-(isoquinolin-1-ylamino)-4-((2-methoxyethyl) (4-(5,6,7,8-tetrahydro-1,8-naphthyridin-2-yl)butyl)amino) butanoic acid] belongs over 1000 nM.
With `CO[C@H](C)CN(CCCCc1ccc2c(n1)NCCC2)CC[C@H](Nc1cc(-c2ccccc2)ncn1)C(=O)O` [Compound 80, (S)-4-(((R)-2-methoxypropyl) (4-(5,6,7,8-tetrahydro-1,8-naphthyridin-2-yl)butyl)amino)-2-((6-phenylpyrimidin-4-yl)amino) butanoic acid], the IC50 is under 50 nM.
To `O=C(O)[C@H](CCN(CCCCc1ccc2c(n1)NCCC2)CCOc1ccc(F)cc1)Nc1ncc(C(F)(F)F)cn1` [Compound 139, (S)-4-((2-(4-fluorophenoxy)ethyl) (4-(5,6,7,8-tetrahydro-1,8-naphthyridin-2-yl)butyl)amino)-2-((5-(trifluoromethyl)pyrimidin-2-yl)amino) butanoic acid] belongs under 50 nM.
Under `O=C(O)[C@H](CCN(CCCCc1ccc2c(n1)NCCC2)C1CC1)Nc1ccncn1` [Compound 2, (S)-4-(cyclopropyl(4-(5,6,7,8-tetrahydro-1,8-naphthyridin-2-yl)butyl)amino)-2-(pyrimidin-4-ylamino) butanoic acid] stands 250 to 1000 nM.
Under `Cn1ncc2c(N[C@@H](CCN(CCCCc3ccc4c(n3)NCCC4)CCOc3ccc(F)cc3)C(=O)O)ncnc21` [Compound 123, (S)-4-((2-(4-fluorophenoxy)ethyl) (4-(5,6,7,8-tetrahydro-1,8-naphthyridin-2-yl)butyl)amino)-2-((1-methyl-1H-pyrazolo[3,4-d]pyrimidin-4-yl)amino) butanoic acid] stands under 50 nM.
Consider `Cn1ncc2c(N[C@@H](CCN(CCCCc3ccc4c(n3)NCCC4)CCS(C)(=O)=O)C(=O)O)ncnc21` [Compound 101, (S)-2-((1-methyl-1H-pyrazolo[3,4-d]pyrimidin-4-yl)amino)-4-((2-(methylsulfonyl)ethyl) (4-(5,6,7,8-tetrahydro-1,8-naphthyridin-2-yl)butyl)amino) butanoic acid], for which the IC50 fell in the range of 50 to 250 nM.
Under `O=C(O)[C@H](CCN(CCCCc1ccc2c(n1)NCCC2)CCC(F)F)Nc1ncc(C2CC2)cn1` [Compound 135, (S)-2-((5-cyclopropylpyrimidin-2-yl)amino)-4-((3,3-difluoropropyl) (4-(5,6,7,8-tetrahydro-1,8-naphthyridin-2-yl)butyl)amino) butanoic acid] stands 50 to 250 nM; under `COCCN(CCCCc1ccc2c(n1)NCCC2)CC[C@H](Nc1cc(-n2cccn2)ncn1)C(=O)O` [Compound 44, (S)-2-((6-(1H-pyrazol-1-yl)pyrimidin-4-yl)amino)-4-((2-methoxyethyl) (4-(5,6,7,8-tetrahydro-1,8-naphthyridin-2-yl)butyl)amino) butanoic acid], under 50 nM.
